Results published in patent US20090275583A1, “ANTIVIRAL COMPOUNDS AND USE THEREOF” (Myriad Genetics, Incorporated, priority 2006, published 2009).
Where two headings read alike, the source gives them in different places.

How the values were obtained:
[1] = system: HIV-1 laboratory strain, NL4-3; experiment: MT-4 cytoprotection assay; assay type: cell-based
Protocol: The HTLV-1 transformed T cell line, MT-4, is highly susceptible to HIV-1 infection. Anti-HIV-1 agents were evaluated in this target cell line by protection from the HIV-induced cytopathic effect. In this assay, viability of both HIV-1 and mock-infected cells was assessed in a […] assay that monitors the ability of metabolically-active cells to reduce the tetrazolium salt WST-1. Cytoprotection by antiviral compounds is indicated by the positive readout of increased WST-1 cleavage.
Briefly, exponentially growing MT-4 cells were mock-infected or batch-infected with the HIV-1 laboratory strain, NL4-3, at a multiplicity of infection of 0.0005. Following a two hour infection, the cells were washed to remove unbound virus and plated in the presence of increasing concentrations of compound. After four days incubation, cytoprotection in the infected cells and compound toxicity in mock-infected cells were analyzed using the WST-1 assay.

HIV-1NL4-3 = experiment: P4-MAGI assay; assay type: cell-based
Description: P4 cells were used to test the effects of compounds on virus fusion activity. P4 cells are HIV-1 infectable CD4^+ HeLa cells that bear the bacterial lacZ gene under the control of a minimal HIV-1 LTR. Charneau, et. al., J. Mol. Biol. 241:651-662 (1994). When these cells are infected with HIV-1, β-galactosidase is expressed due to Tat activation of the viral LTR. In this assay, P4 cells were infected with the laboratory adapted strain HIV-1NL4-3 at a multiplicity of infection of 1 in the presence of DEAE-Dextran. Immediately after addition of virus to the cells, increasing concentrations of compound were added to the cells. […] The effect on cell viability (TC50, concentration of compound that inhibits growth by 50%) was determined in mock-infected cells with the WST-1 Cell Proliferation Reagent (Roche Diagnostics).

[2] = Human immunodeficiency virus 1, NL43, MT4, 96 h, MT-4 cells, four days incubation, WST-1 readout, read-out: MT4 EC50
[3] = Human immunodeficiency virus 1, NL43, less than about 100 nm, read-out: MT-4 assay EC50 (concentration of compound that reduces the virus induced cytopathic effect by 50%)
[4] = Human immunodeficiency virus 1, 24 h, P4 cells, 24 hour incubation, β-galactosidase expression, read-out: P4-MAGI IC50
[5] = Human immunodeficiency virus 1, text statement, less than about 100 nm, read-out: P4-MAGI assay IC50

Row | SMILES | EC50 [1, 2] | EC50 [1, 3] | IC50 (HIV-1NL4-3; [4]) | IC50 (HIV-1NL4-3; [5])
1 | C=C(C)[C@@H]1CC[C@]2(C(=O)NCc3cccc(C(=O)NCc4ccc(OCCCO)c(C(=O)O)c4)c3)CC[C@]3(C)C(CCC4[C@@]5(C)CC[C@H](O)C(C)(C)C5CC[C@]43C)C12 (stereo partly shown) [Example 125] | 0.056 µM | < 0.1 µM | 0.042 µM | < 0.1 µM
2 | C=C(C)[C@@H]1CC[C@]2(C(=O)NCCc3cccc(C(=O)NCc4ccc(C(=O)NCCN5CCOCC5)cn4)c3)CC[C@]3(C)C(CCC4[C@@]5(C)CC[C@H](O)C(C)(C)C5CC[C@]43C)C12 (stereo partly shown) [Example 174] | 0.007 µM | – | 0.006 µM | –
3 | C=C(C)[C@@H]1CC[C@]2(C(=O)NCc3cccc(C(=O)NCc4ccc(O)c(C(=O)O)c4)c3)CC[C@]3(C)C(CCC4[C@@]5(C)CC[C@H](O)C(C)(C)C5CC[C@]43C)C12 (stereo partly shown) [Example 13] | 0.873 µM | – | 0.028 µM | < 0.1 µM
4 | C=C(C)[C@@H]1CC[C@]2(C(=O)NCc3ccnc(C(=O)NCCc4ccc(C(=O)O)cc4)c3)CC[C@]3(C)C(CCC4[C@@]5(C)CC[C@H](O)C(C)(C)C5CC[C@]43C)C12 (stereo partly shown) [Example 92] | 4.87 µM | – | 0.121 µM | –
5 | C=C(C)[C@@H]1CC[C@]2(C(=O)NCc3cccc(C(=O)Nc4ccc5cc(C(=O)O)ccc5c4)c3)CC[C@]3(C)C(CCC4[C@@]5(C)CC[C@H](O)C(C)(C)C5CC[C@]43C)C12 (stereo partly shown) [Example 18] | 6.1 µM | – | 0.108 µM | –
6 | C=C(C)[C@@H]1CC[C@]2(C(=O)NCc3cccc(C(=O)NCc4ccc(C(=O)O)c(F)c4)c3)CC[C@]3(C)C(CCC4[C@@]5(C)CC[C@H](O)C(C)(C)C5CC[C@]43C)C12 (stereo partly shown) [Example 34] | 0.019 µM | < 0.1 µM | 0.0243 µM | < 0.1 µM
7 | C=C(C)[C@@H]1CC[C@]2(C(=O)NCCc3cccc(C(=O)NCc4cccc(C(=O)O)c4F)c3)CC[C@]3(C)C(CCC4[C@@]5(C)CC[C@H](O)C(C)(C)C5CC[C@]43C)C12 (stereo partly shown) [Example 73] | 0.0015 µM | < 0.1 µM | 0.0162 µM | < 0.1 µM
8 | C=C(C)[C@@H]1CC[C@]2(C(=O)NCCc3cccc(C(=O)NCc4ccc(OCCCn5cnc(C(=O)OC)c5)cc4)c3)CC[C@]3(C)C(CCC4[C@@]5(C)CC[C@H](O)C(C)(C)C5CC[C@]43C)C12 (stereo partly shown) [Example 235] | 0.0665 µM | – | 0.018 µM | –
9 | C=C(C)[C@@H]1CC[C@]2(C(=O)NCCc3cccc(C(=O)NCc4ccc(C(=O)N[C@@H](C(=O)O)[C@@H](C)N5CCOCC5)cc4)c3)CC[C@]3(C)C(CCC4[C@@]5(C)CC[C@H](O)C(C)(C)C5CC[C@]43C)C12 (stereo partly shown) [Example 176] | 0.057 µM | – | 0.072 µM | –
10 | C=C(C)[C@@H]1CC[C@]2(C(=O)NCc3cc(C(=O)NCCc4cccc(C(=O)O)c4)ccc3F)CC[C@]3(C)C(CCC4[C@@]5(C)CC[C@H](O)C(C)(C)C5CC[C@]43C)C12 (stereo partly shown) [Example 97] | 0.001 µM | < 0.1 µM | 0.0237 µM | < 0.1 µM
11 | C=C(C)[C@@H]1CC[C@]2(C(=O)NCCc3cccc(C(=O)NCc4nc(C(=O)O)co4)c3)CC[C@]3(C)C(CCC4[C@@]5(C)CC[C@H](O)C(C)(C)C5CC[C@]43C)C12 (stereo partly shown) [Example 153] | 0.014 µM | – | 0.0447 µM | –
12 | C=C(C)[C@@H]1CC[C@]2(C(=O)NCCc3cccc(C(=O)NCc4cccc(C(=O)OC)c4F)c3)CC[C@]3(C)C(CCC4[C@@]5(C)CC[C@H](O)C(C)(C)C5CC[C@]43C)C12 (stereo partly shown) [Example 74] | 0.0008 µM | < 0.1 µM | 0.0276 µM | < 0.1 µM
13 | C=C(C)[C@@H]1CC[C@]2(C(=O)NCc3cc(C(=O)NCc4ccc(C(=O)OC)cc4)ccc3F)CC[C@]3(C)C(CCC4[C@@]5(C)CC[C@H](O)C(C)(C)C5CC[C@]43C)C12 (stereo partly shown) [Example 100] | 0.0013 µM | < 0.1 µM | 0.0215 µM | < 0.1 µM
14 | C=C(C)[C@@H]1CC[C@]2(C(=O)NCCc3cccc(C(=O)NCc4ccc(OCCCO)cc4)c3)CC[C@]3(C)C(CCC4[C@@]5(C)CC[C@H](O)C(C)(C)C5CC[C@]43C)C12 (stereo partly shown) [Example 232] | 0.0715 µM | – | 0.0385 µM | –
15 | C=C(C)[C@@H]1CC[C@]2(C(=O)NCCc3cccc(-c4nc5ccc(C(=O)O)cc5[nH]4)c3)CC[C@]3(C)C(CCC4[C@@]5(C)CC[C@H](O)C(C)(C)C5CC[C@]43C)C12 (stereo partly shown) [Example 130] | 0.23 µM | – | 0.039 µM | –
16 | C=C(C)[C@@H]1CC[C@]2(C(=O)NCCc3cccc(C(=O)NCc4ccc(C(=O)O)cc4)c3F)CC[C@]3(C)C(CCC4[C@@]5(C)CC[C@H](O)C(C)(C)C5CC[C@]43C)C12 (stereo partly shown) [Example 94] | 0.29 µM | – | 0.0705 µM | < 0.1 µM

Row | SMILES | EC50 [1, 2] | EC50 [1, 3] | IC50 (HIV-1NL4-3; [4]) | IC50 (HIV-1NL4-3; [5])
17 | C=C(C)[C@@H]1CC[C@]2(C(=O)NCCc3cccc(C(=O)NCc4ccc(C(=O)N[C@H](CC(=O)OC)C(=O)OC)cn4)c3)CC[C@]3(C)C(CCC4[C@@]5(C)CC[C@H](O)C(C)(C)C5CC[C@]43C)C12 (stereo partly shown) [Example 221] | 0.035 µM | – | 0.009 µM | –
18 | C=C(C)[C@@H]1CC[C@]2(C(=O)NCCc3cccc(C(=O)NCc4cccc(C(=O)OC)n4)c3)CC[C@]3(C)C(CCC4[C@@]5(C)CC[C@H](O)C(C)(C)C5CC[C@]43C)C12 (stereo partly shown) [Example 154] | 0.008 µM | – | 0.034 µM | –
19 | C=C(C)[C@@H]1CC[C@]2(C(=O)NCCc3cccc(C(=O)NC(CCC(=O)OC)C(=O)OC)c3)CC[C@]3(C)C(CCC4[C@@]5(C)CC[C@H](O)C(C)(C)C5CC[C@]43C)C12 (stereo partly shown) [Example 63] | 0.09 µM | < 0.1 µM | 0.0359 µM | < 0.1 µM
20 | C=C(C)[C@@H]1CC[C@]2(C(=O)NCCc3cccc(C(=O)NCc4ccc(O)c(C(=O)O)c4)c3)CC[C@]3(C)C(CCC4[C@@]5(C)CC[C@H](O)C(C)(C)C5CC[C@]43C)C12 (stereo partly shown) [Example 240] | 0.033 µM | – | 0.019 µM | –
21 | CC1(C)C2CC[C@]3(C)C(CCC4C5[C@H]([C@@](C)(O)CO)CC[C@]5(C(=O)NCCc5cccc(C(=O)NCc6ccc(C(=O)O)cn6)c5)CC[C@]43C)[C@@]2(C)CC[C@@H]1O (stereo partly shown) [Example 271] | 1.81 µM | – | 0.119 µM | –
22 | C=C(C)[C@@H]1CC[C@]2(C(=O)NCc3cccc(C(=O)NCc4cccc(C(=O)O)c4C)c3)CC[C@]3(C)C(CCC4[C@@]5(C)CC[C@H](O)C(C)(C)C5CC[C@]43C)C12 (stereo partly shown) [Example 17] | 0.087 µM | < 0.1 µM | 0.032 µM | < 0.1 µM
23 | C=C(C)[C@@H]1CC[C@]2(C(=O)NCc3cccc(C(=O)NCc4ccc(OCCCN5CCOCC5)c(C(=O)O)c4)c3)CC[C@]3(C)C(CCC4[C@@]5(C)CC[C@H](O)C(C)(C)C5CC[C@]43C)C12 (stereo partly shown) [Example 124] | 0.008 µM | < 0.1 µM | 0.0279 µM | < 0.1 µM
24 | C=C(C)[C@@H]1CC[C@]2(C(=O)NCCc3cccc(C(=O)NCCc4cccc(C(=O)O)c4)c3)CC[C@]3(C)C(CCC4[C@@]5(C)CC[C@H](O)C(C)(C)C5CC[C@]43C)C12 (stereo partly shown) [Example 59] | 0.068 µM | < 0.1 µM | 0.0661 µM | < 0.1 µM
25 | C=C(C)[C@@H]1CC[C@]2(C(=O)NCCc3cccc(C(=O)NCc4ccc(C(=O)NCc5ncccc5C(=O)OC)cc4)c3)CC[C@]3(C)C(CCC4[C@@]5(C)CC[C@H](O)C(C)(C)C5CC[C@]43C)C12 (stereo partly shown) [Example 187] | 0.04 µM | – | 0.008 µM | –
26 | C=C(C)[C@@H]1CC[C@]2(C(=O)NCCc3cccc(C(=O)NCc4ccc(C(=O)N[C@@H](CCC(=O)O)C(=O)O)cc4)c3)CC[C@]3(C)C(CCC4[C@@]5(C)CC[C@H](O)C(C)(C)C5CC[C@]43C)C12 (stereo partly shown) [Example 133] | 0.084 µM | < 0.1 µM | 0.034 µM | < 0.1 µM
27 | C=C(C)[C@@H]1CC[C@]2(C(=O)NCCc3cccc(C(=O)NCc4ccc(C(=O)NC(C(=O)O)C(N)C(=O)O)cn4)c3)CC[C@]3(C)C(CCC4[C@@]5(C)CC[C@H](O)C(C)(C)C5CC[C@]43C)C12 (stereo partly shown) [Example 225] | 0.053 µM | – | 0.0385 µM | –
28 | C=C(C)[C@@H]1CC[C@]2(C(=O)NCCc3cccc(C(=O)NCc4ccc(OCCCN5CCNCC5)c(C(=O)O)c4)c3)CC[C@]3(C)C(CCC4[C@@]5(C)CC[C@H](O)C(C)(C)C5CC[C@]43C)C12 (stereo partly shown) [Example 245] | 0.035 µM | – | 0.0274 µM | –
29 | C=C(C)[C@@H]1CC[C@]2(C(=O)NCc3cccc(C(=O)NCc4ccc(C(=O)O)cc4F)c3)CC[C@]3(C)C(CCC4[C@@]5(C)CC[C@H](O)C(C)(C)C5CC[C@]43C)C12 (stereo partly shown) [Example 22] | 0.0097 µM | < 0.1 µM | 0.0154 µM | –
30 | C=C(C)[C@@H]1CC[C@]2(C(=O)NCc3cccc(C(=O)NCCc4ccccc4C(=O)O)c3)CC[C@]3(C)C(CCC4[C@@]5(C)CC[C@H](O)C(C)(C)C5CC[C@]43C)C12 (stereo partly shown) [Example 10] | 1.3 µM | – | 0.128 µM | –
31 | C=C(C)[C@@H]1CC[C@]2(C(=O)NCCc3cccc(C(=O)NCc4ccc(C(=O)N(C)CCN(C)C)cc4)c3)CC[C@]3(C)C(CCC4[C@@]5(C)CC[C@H](O)C(C)(C)C5CC[C@]43C)C12 (stereo partly shown) [Example 134] | 0.24 µM | – | 0.0687 µM | < 0.1 µM
